# Reference: publication PMC7114147 (Antiviral Research, 2013)
# Values joined by “and” are separate entries in the source; they are usually repeats but may differ in a detail not shown here. Equal values may be shown once. Read-outs that look alike come from different tables or passages of the source.
# Legend:
# [1] = system: A/H3N2 (A/HK/7/87); assay: microbe, parasite or virus in culture; format: cell-based
# [2] = system: MDCK cells; conditions: dog
# [3] = system: A/FM/1/47 (A/H1N1); assay: microbe, parasite or virus in culture; format: cell-based; conditions: Influenza A virus, H1N1, MDCK, read-out: Antiviral activity (EC50) A/FM/1/47
# [4] = system: A/Ishikawa/7/82 (A/H3N2); assay: microbe, parasite or virus in culture; format: cell-based; conditions: Influenza A virus, read-out: Antiviral activity (EC50) A/Ishikawa/7/82
# [5] = system: A/Ned/378/05 (A/H1N1); assay: microbe, parasite or virus in culture; format: cell-based; conditions: Influenza A virus, H1N1, MDCK, read-out: Antiviral activity (EC50) A/Ned/378/05
# [6] = system: influenza virus A/PR/8/34; format: cell-based
# [7] = system: endosomal pH; format: cell-based
# [8] = system: A/H1N1 (A/PR/8/34); assay: microbe, parasite or virus in culture; format: cell-based, influenza A virus; conditions: read-out: Antiviral EC50 A/H1N1 (A/PR/8/34)
# [9] = in vitro; conditions: dog, Cytotoxicity CC50
# [10] = system: A/Victoria/3/75 (A/H3N2); assay: microbe, parasite or virus in culture; format: cell-based; conditions: Influenza A virus, H3N2, read-out: EC50 A/Victoria/3/75
# [11] = molecular target: A/M2 wt channel (Influenza A virus, UniProt P0DOF5); assay: biochemical; conditions: pH 5.5, read-out: Activity against A/M2 wt channel, Inhibition at 100 μM (%)
# A/M2 wt channel, sequence (P0DOF5 whole entry, looked up): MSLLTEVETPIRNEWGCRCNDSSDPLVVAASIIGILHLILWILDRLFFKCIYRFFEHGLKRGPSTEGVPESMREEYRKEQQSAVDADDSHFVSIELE
# [12] = Influenza A virus, H3N2, MDCK, read-out: Antiviral activity (EC50) A/HK/7/87
# [13] = Influenza A virus, H1N1|PR/8, MDCK
# [14] = Influenza A virus, H3N2, MDCK, read-out: Antiviral EC50 A/H3N2 (A/HK/7/87)
Compound,"EC50 [1, 12] [µM]",Cytotoxicity (MCC) [2] [µM],EC50 [3] [µM],EC50 [4] [µM],EC50 [5] [µM],EC99 (2-log10 reduction in virus yield) [6],"EC50 [8, 13] [µM]","EC50 [1, 14] [µM]",other results
CC(=O)N[C@H]1[C@H]([C@H](O)[C@H](O)CO)OC(C(=O)O)=C[C@@H]1N=C(N)N [Zanamivir],1.2 ± 0.9,>100,5 ± 1.6,8.7 ± 3.8,1.7 ± 0.5,–,–,–,–
NC(=O)c1ncn([C@@H]2O[C@H](CO)[C@@H](O)[C@H]2O)n1 [Ribavirin],8.6 ± 0.4,>100,10 ± 1,8.8 ± 0.3,7.6 ± 1,11 ± 1 μM,–,–,–
"NC12CC3CC(CC(C3)C1)C2 [Amantadine, amantadine]",3.4 ± 1.7,500,5.1 ± 2.4,11 ± 8,2,179 μM and 179 ± 53 μM,53,3.4,Effect on acridine orange staining pattern ([7]; 500 μM): neither of the polycyclic amines tested
"C1=CC2C3C4C5C=CC4C24CNCC54C13 [Compound 3, 3-azahexacyclo[7.6.0.0^1,5.0^5,12.0^6,10.0^11,15]pentadeca-7,13-diene]",–,–,–,–,–,–,14,16,EC50 [8]: 16 µM; EC50 ([1]; read-out: Antiviral EC50 A/H3N2 (A/HK/7/87)): 14 µM; CC50 [9]: > 100 µM; EC50 [10]: > 100 µM
CCN(CC)CCCC(C)Nc1ccnc2cc(Cl)ccc12 (centres unmarked) [chloroquine],–,–,–,–,–,–,–,–,Effect on acridine orange lysosomal red fluorescence [7]: a decrease in lysosomal pH and a shift to yellow fluorescence
"CC(N)C12CC3CC(CC(C3)C1)C2 (centres unmarked) [Rimantadine, rimantadine]",0.17 ± 0.08,>100,1.9 ± 1.1,0.45 ± 0.15,0.5 ± 0.22,48 μM and 48 ± 5 μM,4.6,0.17,Cytotoxicity MCC (minimum cytotoxic concentration) [2]: 500 µM; CC50 [9]: 230 µM; inhibition at 100 µM [11]: 91.4 ± 0.8%
CO/C1=C\C(C)=C\[C@@H](C)[C@@H](O)[C@@H](C)C/C(C)=C/C=C/[C@H](OC)[C@@H]([C@@H](C)[C@@H](O)[C@H](C)[C@@]2(O)C[C@@H](O)[C@H](C)[C@@H](C(C)C)O2)OC1=O [bafilomycin A1],–,–,–,–,–,–,–,–,Effect on acridine orange lysosomal red fluorescence [7]: completely inhibited
CCC(CC)O[C@@H]1C=C(C(=O)O)C[C@H](N)[C@H]1NC(C)=O [Oseltamivir carboxylate],29 ± 5,>100,16 ± 2,3 ± 1,1.5 ± 0.8,–,–,–,–
